Assay results published in patent publication US20230405151A1, “USE OF IRAK4 MODULATORS FOR GENE THERAPY” (Genzyme Corporation, priority 2022, published 2023).

Assays:
[1] = target: T1, IRAK4 protein (Homo sapiens, UniProt Q9NWZ3); assay: AlphaLISA assay of IRAK4 protein levels in cell lysates; format: cell-based; conditions: 16 nM, 80 nM, 400 nM and 2000 nM; AAV.SAN024 MOI 1e5 24 hrs
T1 construct: endogenous in cells; host or cells: primary human monocyte-derived dendritic cells from PBMC donors
T1 sequence (Q9NWZ3 1-460): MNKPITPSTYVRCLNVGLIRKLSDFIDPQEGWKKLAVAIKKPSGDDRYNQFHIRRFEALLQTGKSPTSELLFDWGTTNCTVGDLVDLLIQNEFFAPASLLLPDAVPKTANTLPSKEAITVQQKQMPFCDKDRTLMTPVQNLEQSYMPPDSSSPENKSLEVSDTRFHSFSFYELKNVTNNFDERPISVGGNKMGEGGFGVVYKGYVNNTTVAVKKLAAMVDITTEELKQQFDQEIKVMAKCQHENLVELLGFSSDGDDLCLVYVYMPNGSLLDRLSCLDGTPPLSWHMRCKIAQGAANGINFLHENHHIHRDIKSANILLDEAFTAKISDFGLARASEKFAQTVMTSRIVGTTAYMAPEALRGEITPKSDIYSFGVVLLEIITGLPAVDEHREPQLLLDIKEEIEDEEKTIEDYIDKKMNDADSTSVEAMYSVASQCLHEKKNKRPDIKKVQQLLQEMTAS
Description: AlphaLISA assay. This assay was performed to measure the levels of IRAK4 protein in the cells. The protocol was followed as per manufacturer's recommendation Perkin Elmer (Catalog #AL3117C). Briefly, cells were lysed and 5 μL of lysates were added to Anti-IRAK4 Acceptor Beads and incubated for 30 min at 23° C., then Biotinylated Anti-IRAK4 Antibody was added and incubated for 60 min at 23° C. Finally, SA-donor beads are added and 30 min later plates are read using EnVision-Alpha Reader (615 nm) https://resources.perkinelmer.com/lab-solutions/resources/docs/MAN_AlphaLISA_IRAK4_AL3117.pdf?_gl=1*7jzf5d*_ga*MzQ4MTQ1NzA3LjE2NDY2NzY5MjI.*_ga_W34ZJ1Z1Q1*MTY3NzE5MjAyOS4zLjEuMTY3NzE5MjA2Mi4yNy4wLjA.&_ga=2.178521252.1409175695.1677192029-348145707.1646676922. The same protocol was used to measure phosphorylation levels of NFkB using AlphaLISA SureFire Ultra p-NFκB (Ser536) Assay Kit—High Volume Catalog #ALSU-PNFKB-A-HV.
To determine the activity of PROTAC degrader, human monocytic dendritic cells were treated with different doses of drugs as indicated (16 nM, 80 nM, 400 nM and 2000 nM) and the same cells were infected with AAV.SAN024 at MOI of 1e5 for 24 hrs. Cell lysates were analysed for IRAK4 degradation. No significant difference was observed between the control (untretaed/uninfected) cells as compared to the treated and AAV. SAN024 infected cells but the AAV.

[2] = target: T2, IRAK4 protein (Mus musculus, UniProt Q8R4K2); assay: In vivo mouse AAV model: IRAK4 expression in PBMC immune cell types by flow cytometry; conditions: chow 100 mg/kg from 15 days prior to AAV; day 14; N=6
T2 construct: from tissue; host or cells: PBMCs from blood of C57BL/6J mice
T2 sequence (Q8R4K2 1-459): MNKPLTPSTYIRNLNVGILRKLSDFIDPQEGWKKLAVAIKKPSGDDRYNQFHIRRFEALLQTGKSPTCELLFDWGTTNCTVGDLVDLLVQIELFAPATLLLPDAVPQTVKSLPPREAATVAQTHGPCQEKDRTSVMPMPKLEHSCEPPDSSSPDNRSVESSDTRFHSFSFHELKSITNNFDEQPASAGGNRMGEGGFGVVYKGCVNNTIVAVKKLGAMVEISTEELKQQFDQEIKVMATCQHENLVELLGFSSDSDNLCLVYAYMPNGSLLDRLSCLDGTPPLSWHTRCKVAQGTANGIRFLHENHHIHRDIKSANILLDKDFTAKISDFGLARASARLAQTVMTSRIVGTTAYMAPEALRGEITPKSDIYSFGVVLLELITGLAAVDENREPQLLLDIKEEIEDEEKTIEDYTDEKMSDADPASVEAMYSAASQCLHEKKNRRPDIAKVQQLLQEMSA
Description: The same experiment design was followed with n=6 mice in each group PBS group, AAV group and AAV+IRAK4 degrader PROTAC IRAK4 degrader-1 Cat. No.: HY-129966 (MedChemExpress) that was mixed with chow at 100 mg/kg and fed to mice 15 days prior to AAV injection. […] AAV capsid used in the study had LacZ transgene. All animal experiments were conducted in accordance with the Institutional Animal Care and Use Committees at Sanofi, Framingham. Submandibular bleeds were performed weekly, and necropsy was performed three weeks post AAV injection.
PBMC isolation and surface staining. 120 ul blood was collected in K2EDTA coated tubes. The blood was mixed with DBPS at 1:1 ration and pipetted into a separate tube containing Ficoll (GE17-5442-02) to ensure no mixing of the blood and Ficoll phases. The mixture was centrifuged at 2000 RPM for 25 minutes at room temperature (9 acceleration and no braking). The buffy coat containing the peripheral blood mononuclear cells (PBMCs) was collected, transferred to a new tube, and centrifuged for five minutes at 400 RCF. PBMCs were washed three times with phosphate buffered saline (PBS) containing 1% fetal bovine serum (FBS) or fetal calf serum (FCS) and counted. The PBMC cells thus obtained were stained with different antibodies to quantify percentage of different immune cell subsets in peripheral blood.
On day 14 mice were bled and PBMCs were harvested. […]

SMILES: O=C1CCC(N2C(=O)c3cccc(NCc4cn(CCCNC(=O)c5ccc(-n6cc(NC(=O)c7coc(-c8ccnc(NCC9CC9)c8)n7)c(C(F)(F)F)n6)cc5)cn4)c3C2=O)C(=O)N1 (centres unmarked) [PROTAC IRAK4 degrader-1]
- IRAK4 levels (IRAK4 degradation) in cell lysates [1]: reduction of IRAK4 levels at all doses
- IRAK4 protein expression in all immune cell types evaluated in PBMCs (PBMCs, T cells, B cells, monocytes) [2]: reduced significantly
